# Experiments:
# CBP = biological target: T1, CBP (Homo sapiens, UniProt Q92793); experiment: CBP degradation, HiBit technology in A549 CBP HiBit cells (24 h); format: cell-based; conditions: 24 hrs post treatment
# T1 construct: host or cells: A549 CBP HiBit cells
# Procedure: p300 and CBP degradation potency and Dmax were determined using in cell western (ICW) assay technology in H1299 cells or HiBit technology in A549 HiBit cells.
# A549 P300 HiBit and A549 CBP HiBit cells were plated in separate 384-well, TC treated, white-opaque, flat-bottomed microplate. Cells were plated at a cell density of 0.2×10^4 cells per well in assay media comprised of F-12K, 10% heat inactivated FBS, and 1% penicillin/streptomycin. Assay microplates containing HiBit cells were placed in a 37° C., 5% CO2, tissue culture incubator and left to equilibrate overnight. The next day cells were treated with serial dilutions of test compound made up of 10 mM stock solutions in DMSO. 384-Well plates containing treated cells were then placed back into a 37° C., 5% CO2, tissue culture incubator. Assay microplates containing A549 P300 HiBit cells were incubated for 2 hrs post treatment before P300 destruction was assessed, while microplates containing A549 CBP HiBit cells were incubated for 24 hrs post treatment before CBP destruction was determined. On the day of each assay time point, microplates were removed from the tissue culture incubator and prepared HiBit Lytic detection buffer (Promega, cat #N3O40) was added to each plate. Plates were covered with aluminum foil and incubated for ten minutes at room temperature on an orbital shaker. After incubation, luminescent signal of each plate was measured using the Envision instrument (Perkin Elmer).
# p300 = biological target: T2, p300 (Homo sapiens, UniProt Q09472); experiment: P300 degradation, HiBit technology in A549 P300 HiBit cells (2 h); format: cell-based; conditions: 2 hrs post treatment; for Dmax: A549, A549 P300 HiBit cells; for DC50: A549 P300 HiBit cells
# T2 construct: host or cells: A549 P300 HiBit cells
# T2 sequence (Q09472 whole entry): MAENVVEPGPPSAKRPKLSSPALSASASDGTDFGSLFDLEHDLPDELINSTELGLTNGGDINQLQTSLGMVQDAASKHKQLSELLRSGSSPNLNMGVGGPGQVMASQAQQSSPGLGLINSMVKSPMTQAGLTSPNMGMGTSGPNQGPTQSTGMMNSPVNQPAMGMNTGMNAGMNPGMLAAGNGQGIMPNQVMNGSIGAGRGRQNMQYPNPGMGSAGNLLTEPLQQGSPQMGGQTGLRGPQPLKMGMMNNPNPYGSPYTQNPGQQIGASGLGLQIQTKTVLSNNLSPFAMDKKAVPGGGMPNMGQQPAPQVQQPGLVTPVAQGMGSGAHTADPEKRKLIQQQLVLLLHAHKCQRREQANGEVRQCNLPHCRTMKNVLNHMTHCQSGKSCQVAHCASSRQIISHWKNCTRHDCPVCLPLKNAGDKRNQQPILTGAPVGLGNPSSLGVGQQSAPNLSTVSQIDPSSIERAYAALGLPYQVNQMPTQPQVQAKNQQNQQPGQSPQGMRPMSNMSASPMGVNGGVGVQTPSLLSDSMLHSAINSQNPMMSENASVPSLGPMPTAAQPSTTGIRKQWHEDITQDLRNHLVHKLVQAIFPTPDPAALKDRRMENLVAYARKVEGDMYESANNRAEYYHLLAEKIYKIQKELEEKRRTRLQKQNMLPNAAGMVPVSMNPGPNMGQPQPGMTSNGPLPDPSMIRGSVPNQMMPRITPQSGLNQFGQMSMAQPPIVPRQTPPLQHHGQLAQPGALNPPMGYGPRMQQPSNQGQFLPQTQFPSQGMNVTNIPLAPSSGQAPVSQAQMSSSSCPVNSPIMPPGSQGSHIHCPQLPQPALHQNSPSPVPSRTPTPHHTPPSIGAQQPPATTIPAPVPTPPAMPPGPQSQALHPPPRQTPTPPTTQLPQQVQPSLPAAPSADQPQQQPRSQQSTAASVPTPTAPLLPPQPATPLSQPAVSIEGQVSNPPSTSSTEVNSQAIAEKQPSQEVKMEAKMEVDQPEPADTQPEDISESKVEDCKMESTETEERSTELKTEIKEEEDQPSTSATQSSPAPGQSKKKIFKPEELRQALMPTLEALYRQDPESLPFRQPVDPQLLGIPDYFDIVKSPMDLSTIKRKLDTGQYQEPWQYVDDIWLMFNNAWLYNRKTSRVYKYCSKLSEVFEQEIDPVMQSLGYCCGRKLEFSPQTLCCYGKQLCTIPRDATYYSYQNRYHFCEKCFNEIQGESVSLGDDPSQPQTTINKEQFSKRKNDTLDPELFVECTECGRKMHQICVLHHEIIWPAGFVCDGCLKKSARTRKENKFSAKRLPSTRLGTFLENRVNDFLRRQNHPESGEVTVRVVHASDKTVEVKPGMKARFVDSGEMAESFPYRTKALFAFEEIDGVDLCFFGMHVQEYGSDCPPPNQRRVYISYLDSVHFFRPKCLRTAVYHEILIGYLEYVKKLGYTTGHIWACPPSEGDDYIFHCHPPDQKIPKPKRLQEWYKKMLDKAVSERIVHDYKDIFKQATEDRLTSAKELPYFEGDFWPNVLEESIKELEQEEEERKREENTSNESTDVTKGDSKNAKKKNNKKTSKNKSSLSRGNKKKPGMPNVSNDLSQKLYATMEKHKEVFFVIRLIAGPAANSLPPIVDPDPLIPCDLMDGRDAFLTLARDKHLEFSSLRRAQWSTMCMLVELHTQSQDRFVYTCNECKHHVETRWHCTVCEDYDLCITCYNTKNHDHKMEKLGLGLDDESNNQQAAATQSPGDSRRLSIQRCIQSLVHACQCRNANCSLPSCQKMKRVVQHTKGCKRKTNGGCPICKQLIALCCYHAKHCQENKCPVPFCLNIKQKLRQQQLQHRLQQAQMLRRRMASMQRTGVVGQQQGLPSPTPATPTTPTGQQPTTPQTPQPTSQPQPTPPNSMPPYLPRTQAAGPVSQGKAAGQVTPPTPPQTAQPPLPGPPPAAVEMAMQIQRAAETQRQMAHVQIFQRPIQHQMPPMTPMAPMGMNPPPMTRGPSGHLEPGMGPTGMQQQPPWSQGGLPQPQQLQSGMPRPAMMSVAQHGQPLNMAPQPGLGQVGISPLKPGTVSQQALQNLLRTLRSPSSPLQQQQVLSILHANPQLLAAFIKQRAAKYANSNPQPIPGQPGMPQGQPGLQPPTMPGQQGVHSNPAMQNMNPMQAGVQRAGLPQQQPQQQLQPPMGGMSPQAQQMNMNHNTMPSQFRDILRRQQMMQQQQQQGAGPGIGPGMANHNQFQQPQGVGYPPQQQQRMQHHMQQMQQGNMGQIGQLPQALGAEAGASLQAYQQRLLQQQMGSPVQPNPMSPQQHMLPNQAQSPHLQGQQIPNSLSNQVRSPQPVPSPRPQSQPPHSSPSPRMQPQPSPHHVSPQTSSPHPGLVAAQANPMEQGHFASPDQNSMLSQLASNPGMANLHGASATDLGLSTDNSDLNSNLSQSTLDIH
# Procedure, shortened: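 A549 cells carrying HiBit-tagged p300 or CBP, seeded overnight at 37 °C/5% CO2, then treated with serial compound dilutions from 10 mM DMSO stocks. Incubation was 2 h for p300 and 24 h for CBP, followed by HiBit lytic detection reagent for 10 min at room temperature. Luminescence read gave degradation potency and Dmax.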
# T1 sequence (Q92793 whole entry): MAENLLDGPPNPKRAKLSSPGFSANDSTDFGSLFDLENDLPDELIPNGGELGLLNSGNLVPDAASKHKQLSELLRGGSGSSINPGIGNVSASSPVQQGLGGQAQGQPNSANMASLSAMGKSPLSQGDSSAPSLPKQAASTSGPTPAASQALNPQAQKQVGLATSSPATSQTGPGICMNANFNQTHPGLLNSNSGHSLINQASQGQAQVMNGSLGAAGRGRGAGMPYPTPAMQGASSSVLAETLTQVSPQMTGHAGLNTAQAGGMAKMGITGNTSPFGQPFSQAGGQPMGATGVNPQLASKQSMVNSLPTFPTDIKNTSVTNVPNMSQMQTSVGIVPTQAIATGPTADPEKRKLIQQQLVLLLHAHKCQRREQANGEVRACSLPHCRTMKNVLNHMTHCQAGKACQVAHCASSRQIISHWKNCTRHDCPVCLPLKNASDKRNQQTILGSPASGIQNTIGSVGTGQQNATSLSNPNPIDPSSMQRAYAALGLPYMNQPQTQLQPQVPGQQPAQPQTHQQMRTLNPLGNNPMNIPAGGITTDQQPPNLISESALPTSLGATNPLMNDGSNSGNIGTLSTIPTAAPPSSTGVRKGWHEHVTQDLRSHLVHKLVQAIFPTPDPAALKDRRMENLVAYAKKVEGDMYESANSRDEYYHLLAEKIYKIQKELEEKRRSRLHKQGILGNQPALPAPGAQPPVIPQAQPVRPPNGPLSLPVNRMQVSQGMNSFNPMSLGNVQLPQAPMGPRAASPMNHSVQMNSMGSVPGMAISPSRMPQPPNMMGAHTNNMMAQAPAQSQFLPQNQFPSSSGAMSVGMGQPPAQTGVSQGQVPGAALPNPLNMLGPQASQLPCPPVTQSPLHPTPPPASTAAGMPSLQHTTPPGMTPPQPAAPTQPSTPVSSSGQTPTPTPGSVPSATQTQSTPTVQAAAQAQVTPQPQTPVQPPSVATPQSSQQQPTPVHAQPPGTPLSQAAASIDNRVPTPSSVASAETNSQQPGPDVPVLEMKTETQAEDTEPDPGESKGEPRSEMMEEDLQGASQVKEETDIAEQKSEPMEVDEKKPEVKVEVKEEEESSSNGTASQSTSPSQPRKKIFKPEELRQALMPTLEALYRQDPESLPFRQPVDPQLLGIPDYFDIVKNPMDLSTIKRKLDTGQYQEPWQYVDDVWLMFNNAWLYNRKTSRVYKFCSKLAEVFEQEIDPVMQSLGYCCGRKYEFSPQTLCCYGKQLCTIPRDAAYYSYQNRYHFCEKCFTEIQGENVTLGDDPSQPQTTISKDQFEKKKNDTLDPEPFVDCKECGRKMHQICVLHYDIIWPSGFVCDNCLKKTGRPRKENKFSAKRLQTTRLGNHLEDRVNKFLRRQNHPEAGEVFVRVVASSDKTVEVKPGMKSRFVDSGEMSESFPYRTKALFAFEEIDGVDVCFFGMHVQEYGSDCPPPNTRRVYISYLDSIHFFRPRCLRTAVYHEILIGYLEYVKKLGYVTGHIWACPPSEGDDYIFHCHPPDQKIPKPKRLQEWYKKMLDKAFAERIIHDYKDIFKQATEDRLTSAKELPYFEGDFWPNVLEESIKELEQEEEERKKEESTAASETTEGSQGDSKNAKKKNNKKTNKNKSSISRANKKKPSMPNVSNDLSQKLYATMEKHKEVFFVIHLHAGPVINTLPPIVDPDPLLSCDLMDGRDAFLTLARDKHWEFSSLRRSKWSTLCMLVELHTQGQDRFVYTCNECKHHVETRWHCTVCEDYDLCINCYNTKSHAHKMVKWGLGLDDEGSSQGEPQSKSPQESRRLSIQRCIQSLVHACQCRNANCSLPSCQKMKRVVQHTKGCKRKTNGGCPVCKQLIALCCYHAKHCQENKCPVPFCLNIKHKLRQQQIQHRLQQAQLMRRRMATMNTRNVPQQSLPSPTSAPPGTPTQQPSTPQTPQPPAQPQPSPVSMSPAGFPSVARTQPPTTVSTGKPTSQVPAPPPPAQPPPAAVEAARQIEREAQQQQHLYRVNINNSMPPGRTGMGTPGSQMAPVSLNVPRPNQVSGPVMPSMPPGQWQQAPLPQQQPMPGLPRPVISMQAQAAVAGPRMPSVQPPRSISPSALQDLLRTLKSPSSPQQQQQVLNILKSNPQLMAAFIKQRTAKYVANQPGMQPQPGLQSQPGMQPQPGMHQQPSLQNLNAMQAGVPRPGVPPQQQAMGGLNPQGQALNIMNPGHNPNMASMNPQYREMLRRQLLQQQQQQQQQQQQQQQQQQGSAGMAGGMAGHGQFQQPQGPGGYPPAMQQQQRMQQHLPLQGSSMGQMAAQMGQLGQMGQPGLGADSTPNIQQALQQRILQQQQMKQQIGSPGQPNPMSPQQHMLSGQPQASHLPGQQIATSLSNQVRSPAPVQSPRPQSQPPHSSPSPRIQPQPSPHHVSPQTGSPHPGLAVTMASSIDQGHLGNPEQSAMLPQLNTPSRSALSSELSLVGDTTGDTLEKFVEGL
SMILES,DC50 (CBP),Dmax (CBP),Dmax (p300),DC50 (p300)
"CC(C)c1cc(-c2cccc3cc(-c4ccc(C(=O)NCC#Cc5cc(NC6CCC(=O)NC6=O)nn5C)nc4)ncc23)cc2c1n(C)c(=O)n2C (stereo not shown) [Example A24, N-(3-(3-((2,6-Dioxopiperidin-3-yl)amino)-1-methyl-1H-pyrazol-5-yl)prop-2-yn-1-yl)-5-(8-(7-isopropyl-1,3-dimethyl-2-oxo-2,3-dihydro-1H-benzo[d]imidazol-5-yl)isoquinolin-3-yl)picolinamide]",> 1000 nM,< 20%,> 80%,< 1 nM
"CC(C)c1cc(N2CCN(C)c3cc(-c4ccc(C(=O)NCC#Cc5cccc(NC6CCC(=O)NC6=O)c5)nc4)ncc32)cc2c1n(C)c(=O)n2C (stereo not shown) [Example A270, N-(3-(3-((2,6-dioxopiperidin-3-yl)amino)phenyl)prop-2-yn-1-yl)-5-(4-(7-isopropyl-1,3-dimethyl-2-oxo-2,3-dihydro-1H-benzo[d]imidazol-5-yl)-1-methyl-1,2,3,4-tetrahydro-pyrido[3,4-b]pyrazin-7-yl)picolinamide]",1 to 9.9 nM,60 to 79%,> 80%,< 1 nM
"Cn1nc(C2CCC(=O)NC2=O)c2cc(C#CCNC(=O)c3ccc(-c4ncc5c(n4)OCCN5c4ccc5c(c4)n(C)c(=O)n5C)cn3)ccc21 (stereo not shown) [Example A243, 5-(5-(1,3-dimethyl-2-oxo-2,3-dihydro-1H-benzo[d]imidazol-5-yl)-6,7-dihydro-5H-pyrimido[4,5-b][1,4]oxazin-2-yl)-N-(3-(3-(2,6-dioxopiperidin-3-yl)-1-methyl-1H-indazol-5-yl)prop-2-yn-1-yl)picolinamide]",> 1000 nM,< 20%,> 80%,1 to 9.9 nM
"Cc1cc(N2CCN(C)c3nc(-c4ccc(C(=O)NCC#Cc5cc6c(C7CCC(=O)NC7=O)cccc6o5)nc4)ncc32)cc2c1n(C)c(=O)n2C (stereo not shown) [Example A219, N-(3-(4-(2,6-dioxo-piperidin-3-yl)benzofuran-2-yl)prop-2-yn-1-yl)-5-(8-methyl-5-(1,3,7-trimethyl-2-oxo-2,3-dihydro-1H-benzo[d]imidazol-5-yl)-5,6,7,8-tetrahydro-pteridin-2-yl)picolinamide]",100 to 999 nM,< 20%,> 80%,< 1 nM
"Cn1c(=O)n(C)c2c(N3CCC(C)(O)CC3)nc(-c3cccc4cc(-c5ccc(C(=O)NCC#Cc6cc7c(C8CCC(=O)NC8=O)cccc7o6)nc5)ncc34)cc21 (stereo not shown) [Example A258, N-(3-(4-(2,6-dioxo-piperidin-3-yl)benzofuran-2-yl)prop-2-yn-1-yl)-5-(8-(4-(4-hydroxy-4-methylpiperidin-1-yl)-1,3-dimethyl-2-oxo-2,3-dihydro-1H-imidazo[4,5-c]pyridin-6-yl)isoquinolin-3-yl)picolinamide]",> 1000 nM,< 20%,> 80%,< 1 nM
"Cc1cc(-c2ncc3c(n2)OCCN3c2ccc3c(c2)n(C)c(=O)n3C)cnc1C(=O)NCC#Cc1cc2c([C@@H]3CCC(=O)NC3=O)cccc2o1 [Example A175, (S)-5-(5-(1,3-dimethyl-2-oxo-2,3-dihydro-1H-benzo[d]imidazol-5-yl)-6,7-dihydro-5H-pyrimido[4,5-b] [1,4]oxazin-2-yl)-N-(3-(4-(2,6-dioxo-piperidin-3-yl)benzofuran-2-yl)prop-2-yn-1-yl)-3-methylpicolinamide]",> 1000 nM,< 20%,> 80%,10 to 99 nM
"Cn1c(=O)n(C)c2cc(-c3cccc4cc(-c5ccc(C(=O)NCC#Cc6ccc7cnn(C8CCC(=O)NC8=O)c7c6)nc5)ncc34)ccc21 (stereo not shown) [Example A255, 5-(8-(1,3-dimethyl-2-oxo-2,3-dihydro-1H-benzo[d]imidazol-5-yl)isoquinolin-3-yl)-N-(3-(1-(2,6-dioxo-piperidin-3-yl)-1H-indazol-6-yl)prop-2-yn-1-yl)picolinamide]",> 1000 nM,< 20%,> 80%,1 to 9.9 nM
"CC(C)c1cc(-c2cccc3cc(-c4ccc(C(=O)NCC#Cc5cc6c(F)ccc(C7CCC(=O)NC7=O)c6o5)nc4)ncc23)cc2c1n(C)c(=O)n2C (stereo not shown) [Example A185, N-(3-(7-(2,6-dioxo-piperidin-3-yl)-4-fluorobenzofuran-2-yl)prop-2-yn-1-yl)-5-(8-(7-isopropyl-1,3-dimethyl-2-oxo-2,3-dihydro-1H-benzo [d]imidazol-5-yl)isoquinolin-3-yl)picolinamide]",> 1000 nM,< 20%,60 to 79%,10 to 99 nM
"CC(C)c1cc(-c2cccc3cc(-c4ccc(C(=O)NCC#Cc5oc6c(C7CCC(=O)NC7=O)cccc6c5F)nc4)ncc23)cc2c1n(C)c(=O)n2C (stereo not shown) [Example A191, N-(3-(7-(2,6-dioxo-piperidin-3-yl)-3-fluorobenzofuran-2-yl)prop-2-yn-1-yl)-5-(8-(7-isopropyl-1,3-dimethyl-2-oxo-2,3-dihydro-1H-benzo [d]imidazol-5-yl)isoquinolin-3-yl)picolinamide]",> 1000 nM,< 20%,> 80%,10 to 99 nM

# Continued, values first:
DC50 (CBP),Dmax (CBP),Dmax (p300),DC50 (p300),SMILES
> 1000 nM,< 20%,> 80%,1 to 9.9 nM,"Cc1cc(-c2ncc3c(n2)CCCN3c2nc(N3CCOCC3)cc3c2cc(C)c(=O)n3C)cnc1C(=O)NCC#Cc1ccc2occ(C3CCC(=O)NC3=O)c2c1 (stereo not shown) [Example B71, 5-(5-(1,3-dimethyl-7-morpholino-2-oxo-1,2-dihydro-1,6-naphthyridin-5-yl)-5,6,7,8-tetrahydropyrido[3,2-d]pyrimidin-2-yl)-N-(3-(3-(2,6-dioxopiperidin-3-yl)benzofuran-5-yl)prop-2-yn-1-yl)-3-methylpicolinamide]"
100 to 999 nM,< 20%,> 80%,< 1 nM,"Cc1cc2c(N3CCCc4nc(-c5ccc(C(=O)NCC#Cc6cc7c(C8CCC(=O)NC8=O)cccc7o6)nc5)ncc43)cccc2n(C)c1=O (stereo not shown) [Example B67, 5-(5-(1,3-dimethyl-2-oxo-1,2-dihydroquinolin-5-yl)-5,6,7,8-tetrahydropyrido[3,2-d]pyrimidin-2-yl)-N-(3-(4-(2,6-dioxopiperidin-3-yl)benzofuran-2-yl)prop-2-yn-1-yl)picolinamide]"
> 1000 nM,< 20%,20 to 39%,10 to 99 nM,"Cc1cc2c(N3CCCc4nc(-c5ccc(C(=O)NCC#Cc6nc7cccc(C8CCC(=O)NC8=O)n7n6)nc5)ncc43)cc(C3CCOCC3)cc2n(C)c1=O (stereo not shown) [Example B156, 5-(5-(1,3-dimethyl-2-oxo-7-(tetrahydro-2H-pyran-4-yl)-1,2-dihydroquinolin-5-yl)-5,6,7,8-tetrahydropyrido[3,2-d]pyrimidin-2-yl)-N-(3-(5-(2,6-dioxopiperidin-3-yl)-[1,2,4]triazolo [1,5-a]pyridin-2-yl)prop-2-yn-1-yl) picolinamide]"
> 1000 nM,< 20%,> 80%,1 to 9.9 nM,"Cc1cc2c(N3CCOc4cc(-c5ccc(C(=O)NCC#Cc6ccc7occ(C8CCC(=O)NC8=O)c7c6)nc5)ncc43)cc(F)cc2n(C)c1=O (stereo not shown) [Example B123, N-(3-(3-(2,6-dioxopiperidin-3-yl)benzofuran-5-yl)prop-2-yn-1-yl)-5-(4-(7-fluoro-1,3-dimethyl-2-oxo-1,2-dihydroquinolin-5-yl)-3,4-dihydro-2H-pyrido[4,3-b][1,4]oxazin-7-yl)picolinamide]"
100 to 999 nM,< 20%,> 80%,< 1 nM,"Cc1cc2c(N3CCCc4nc(-c5ccc(C(=O)NCC#Cc6cc7c(C8CCC(=O)NC8=O)nccc7o6)nc5)ncc43)cccc2n(C)c1=O (stereo not shown) [Example B106, 5-(5-(1,3-dimethyl-2-oxo-1,2-dihydroquinolin-5-yl)-5,6,7,8-tetrahydropyrido[3,2-d]pyrimidin-2-yl)-N-(3-(4-(2,6-dioxopiperidin-3-yl)furo [3,2-c]pyridin-2-yl)prop-2-yn-1-yl) picolinamide]"
10 to 99 nM,40 to 59%,> 80%,1 to 9.9 nM,"CN1Cc2c(-c3cccc4cc(-c5ccc(C(=O)NCC#Cc6ccc7cnn(C8CCC(=O)NC8=O)c7c6)nc5)ncc34)cc(C(C)(F)F)cc2N(C)C1=O (stereo not shown) [Example B9, 5-(8-(7-(1,1-Difluoroethyl)-1,3-dimethyl-2-oxo-1,2,3,4-tetrahydroquinazolin-5-yl)isoquinolin-3-yl)-N-(3-(1-(2,6-dioxopiperidin-3-yl)-1H-indazol-6-yl)prop-2-yn-1-yl)picolinamide]"
> 1000 nM,< 20%,> 80%,1 to 9.9 nM,"Cc1cc2c(N3CCCc4nc(-c5ccc(C(=O)NCC#Cc6ccc7occ([C@@H]8CCC(=O)NC8=O)c7c6)nc5)ncc43)nc(N3CCOCC3)cc2n(C)c1=O [Example B73, (S)-5-(5-(1,3-dimethyl-7-morpholino-2-oxo-1,2-dihydro-1,6-naphthyridin-5-yl)-5,6,7,8-tetrahydropyrido[3,2-d]pyrimidin-2-yl)-N-(3-(3-(2,6-dioxopiperidin-3-yl)benzofuran-5-yl)prop-2-yn-1-yl)picolinamide]"

# From US20250114345A1, “COMPOUNDS AND COMPOSITIONS AS CBP/P300 DEGRADERS AND USES THEREOF” (Oncopia Therapeutics, Inc. d/b/a/ SK Life Science Labs, priority 2023, published 2025)
